Values joined by “and” are separate entries in the source; they are usually repeats but may differ in a detail not shown here. Equal values may be shown once.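 Step 1: Grow cells in 96-well plates. Step 2: Expose to compound for 48 hours at 5 concentrations. Step 3: Interpolate endpoints linearly; if unreached, use highest concentration. The concentration for 50% growth inhibition is given as GI50. TGI is the concentration that stops growth completely.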 Where a SMILES comes first, the peptide text is derived from it. [ ]: non-standard residue; d: D form. ξ: configuration not given here. Pentanoyl(2-O,4-OH,5-Cl) = O=C(O)C(O)CC(O)CCl; Ile(3ξ) = CCC(C)[C@H](N)C(=O)O; NMeV = CN[C@H](C(=O)O)C(C)C; NMeA = CN[C@@H](C)C(=O)O; βAla = NCCC(=O)O
Experiments:
Assay in all cases: NCI anticancer screen, dose series, 48 h
UACC-62 melanoma = system: UACC-62 melanoma
SNB-75 CNS = system: SNB-75 CNS
KM12 colon = system: KM12 colon
SW-620 colon = system: SW-620 colon
COLO 205 colon = system: COLO 205 colon
IGROV1 ovarian = system: IGROV1 ovarian
OVCAR-8 ovarian = system: OVCAR-8 ovarian
MALME-3M melanoma = system: MALME-3M melanoma
M14 melanoma = system: M14 melanoma
EKVX NSCLC = system: EKVX NSCLC

SMILES | GI50 (UACC-62 melanoma) | TGI (UACC-62 melanoma) | GI50 (SNB-75 CNS) | TGI (SNB-75 CNS) | GI50 (KM12 colon) | TGI (KM12 colon) | GI50 (SW-620 colon) | TGI (SW-620 colon) | GI50 (COLO 205 colon) | TGI (COLO 205 colon) | GI50 (IGROV1 ovarian) | TGI (IGROV1 ovarian) | GI50 (OVCAR-8 ovarian) | TGI (OVCAR-8 ovarian) | GI50 (MALME-3M melanoma) | TGI (MALME-3M melanoma) | GI50 (M14 melanoma) | TGI (M14 melanoma) | GI50 (EKVX NSCLC) | TGI (EKVX NSCLC)
CN1CCC2(CC1)C(=O)Nc1cc(NC(=O)c3ccc4c(c3)C[C@@H]3C(C)(C)[C@H](O)[C@H](F)C[C@@]3(C)O4)ccc12 | 0.405 µM | 5.13 µM | 0.0373 µM | 4.8 µM | 1.38 µM | 17.7 µM | 0.588 µM | 11.5 µM | 1.84 µM | 7.36 µM | 13.1 µM | > 100 µM | 26.6 µM | > 100 µM | 1.49 µM | 9.79 µM | 0.549 µM | 4.37 µM | 29.8 µM | > 100 µM
O=c1c(-c2cccc3ccccc23)c(-c2cccc3ccccc23)c1=O |  | > 100 µM |  | 4.07 µM |  | 21.1 µM |  | 58.9 µM |  | 1.64 µM |  | > 100 µM |  | 13.6 µM |  | > 86.2 µM |  | 8.51 µM |  | > 39.4 µM
CC1COS(=O)N1c1ccccc1 (stereo not given) |  | > 100 µM |  | > 100 µM |  | > 100 µM |  | > 100 µM |  | > 100 µM |  | > 100 µM |  | > 100 µM |  | > 100 µM |  | > 100 µM |  | > 100 µM
O=C(c1ccccc1)c1nc2ccc(Cl)cc2cc1C(Br)Br |  | 2.06 µM |  | 1.41 µM |  | 1.06 µM |  | 0.905 µM |  | 1.6 µM |  | 4.38 µM |  | 1.32 µM |  | 5.43 µM |  | 5.65 µM |  | 1.69 µM
CCC(C)[C@@H]1NC(=O)[C@@H]2CCCN2C(=O)C(CC(O)CCl)OC(=O)CCNC(=O)[C@H](C)N(C)C(=O)[C@H](C(C)C)N(C)C1=O (stereo not given in full) (cyclo([Ile(3ξ)][NMeV][NMeA][βAla][Pentanoyl(2-O,4-OH,5-Cl)]P)) |  | 7.71 µM |  | > 100 µM |  | > 100 µM |  | > 100 µM |  | > 31.6 µM |  | > 100 µM |  | > 100 µM |  | > 100 µM |  | 3.09 µM |  | > 100 µM
COc1ccc(C(O)C(c2ccc(OCc3ccccc3)cc2)c2ccc(OCc3ccccc3)cc2)cc1 (stereo not given) |  | > 100 µM |  | > 100 µM |  | > 100 µM |  | > 100 µM |  | > 100 µM |  | > 100 µM |  | > 100 µM |  | > 100 µM |  | > 100 µM |  | > 100 µM
CC(NC(=O)c1ccc(Cl)c(Cl)c1)c1ccc(-c2ccccc2)cc1 (stereo not given) |  | > 100 µM |  | 39.3 µM |  | > 100 µM |  | > 100 µM |  | > 100 µM |  | > 100 µM |  | 82.5 µM |  | 49.1 µM |  | > 100 µM |  | > 100 µM
COc1ccc(-c2nn3ncccc3c2-c2ccnc(Nc3ccc(F)c(F)c3)n2)cc1 | 7.12 µM | > 25 µM | 8.49 µM | > 25 µM | 9.45 µM | > 25 µM | 17 µM | > 25 µM | 15.5 µM | > 25 µM | 8.47 µM | 24.5 µM | 11.2 µM | > 25 µM | 11.3 µM | > 25 µM | 9.61 µM | > 25 µM | 5.06 µM | > 22.7 µM
CCOc1ccc2nc3cc(N)ccc3c(N)c2c1 | 4.7 µM and 2.56 µM | 18.5 µM and 12 µM | 2.86 µM and 14.1 µM | 8.78 µM and 28.4 µM | 2.73 µM and 1.06 µM | 17.1 µM and 12.9 µM | 3.1 µM and 3.08 µM | 16.2 µM and 14.4 µM | 3 µM and 1.25 µM | 13.4 µM and 4.69 µM | 11.5 µM and 15.3 µM | 37.3 µM and 45.4 µM | 2.68 µM and 2.55 µM | 15.8 µM and 13.1 µM | 1.22 µM and 1.54 µM | 3.23 µM and 3.95 µM | 8.31 µM and 10.7 µM | 26.3 µM and 23.4 µM | 9.76 µM and 7.63 µM | 36.7 µM and 41.4 µM
Clc1ccc2c(NC3CCC(NC4CCCCC4)CC3)ccnc2c1 (stereo not given) | 3.26 µM | 12.5 µM | 4.63 µM | 19.4 µM | 5.34 µM | 18.9 µM | 1.92 µM | 4.19 µM | 1.65 µM | 3.2 µM | 6.64 µM | 30.8 µM | 4.43 µM | 19.3 µM | 2.43 µM | 5.1 µM | 1.72 µM | 3.19 µM | 4.55 µM | 43 µM
CC(C)CC(NC(=O)C(O)C(N)Cc1ccccc1)C(=O)O (stereo not given) |  | > 100 µM |  | > 100 µM |  | > 100 µM |  | > 100 µM |  | > 100 µM |  | > 100 µM |  | > 100 µM |  | > 100 µM |  | > 100 µM |  | > 100 µM
COc1cc(-c2csc(NC(=O)Nc3ccc(Cl)cc3)n2)cc(OC)c1OC | 1.93 µM | 4.22 µM | 2.12 µM | 8.39 µM | 2.57 µM | 7.9 µM | 3.96 µM | > 100 µM | 2.52 µM | 7.05 µM | 3.18 µM | 29.5 µM | 2.46 µM | 5.85 µM | 2.11 µM | 6.32 µM | 2.27 µM | 5.92 µM | 2.77 µM | > 64.5 µM
